The values that follow are results of earlier work, collected in patent US6751290B2, “Radiographic assessment of tissue after exposure to a compound” (Veritas Pharmaceuticals, Inc., priority 1998, dated 2004).

The conditions of the series: experimental logP values, commonly used non-ionic radiographic contrast agents (Hansch et al. 1995).
Regarding `CC(=O)N(CC(O)CO)c1c(I)c(C(=O)NCC(O)CO)c(I)c(C(=O)NCC(O)CO)c1I` (stereo not drawn) [Iohexol], the logP (in general, a log measure of how a compound divides between an organic and an aqueous phase) is recorded as −3.05. For the molecule `CC(=O)Nc1c(I)c(C(=O)N[C@H]2C(O)O[C@H](CO)[C@@H](O)[C@@H]2O)c(I)c(N(C)C(C)=O)c1I` (stereo partly drawn) [Metrizamide], the logP is on record as −1.86. For `COCC(=O)Nc1c(I)c(C(=O)NCC(O)CO)c(I)c(C(=O)N(C)CC(O)CO)c1I` (stereo not drawn) [Iopromide], the logP was −2.05.
